Literature values, collected in US6696071B2, “Pre-coital and post-coital rinse with anti-viral and skin-protective zinc salts” (priority 2001, dated 2004).

Conditions: ionic dissociation in water

## O=C[O-].O=C[O-].[Zn+2] [Zinc formate]
pK1
  Reported pK values, pK1: 0.6
pK2
  Reported pK values, pK2: 0.95
